Data set [1] has as its target T1, TRPV1 (Homo sapiens, UniProt Q8NER1).
T1 construct: expressed in transfected cells; host or cells: Xenopus laevis oocytes (cRNA injection)
It counts as cell-based.

For data set [2], the target named is CaV3.1 (Homo sapiens, UniProt O43497). The source says:
(§1) Electrophysiological measurements.
(§2) (A), (B), (C), and (D) represent that
(§3) currents through the channels.
(§4) in oocytes, as described before (6-8).

The target of data set [3] is KV1.5 (Homo sapiens, UniProt P22460).
From the text: as §1, §2, §3, §4

Data set [4] concerns the target hERG (Homo sapiens, UniProt Q12809).
From the text: as §1, §2, §3, §4

The target in data set [5] is NaV1.5 (Homo sapiens, UniProt Q14524).
From the text: as §1, §2, §3, §4

In data set [6] the target is KV7.1 (Homo sapiens, UniProt P51787).
For data set [7], the target named is α7-nAChR (Homo sapiens, UniProt P36544).
Data set [8] concerns C57BL/6J mice. Nature of the data set: Morris Water Maze (MWM). In kind it is in vivo, mouse. The note with it: i.p., OS 2 mg/kg. On the procedure: (§5) Animal housing. Forty-eight Male C57BL/6J mice were purchased from Janvier Labs (Le Genest-Saint-Isle, France) and were time-specifically housed in a 12 h light-dark cycle (lights on at 7 am), with ad libitum water and food in conditioned rooms (22 °C, humidity ~60%).
(§6) Behavior assays. All mice were subjected to a behavioral test battery that consisted of several general performance tasks of locomotor activity, exploratory and anxiety-like behavior, and learning and memory. Mice were divided into four groups: Vehicle, OS (2 mg/kg), WIN55 (0.5 mg/kg), or OS + WIN. Each group consisted of 7–14 mice that received two i.p injections before each test, with a 10 min interval between each injection. Veh + Veh were injected with PBS. Veh + WIN were injected with PBS and WIN55. Veh + OS were injected with PBS and OS. OS + WIN were injected with OS and WIN55. PBS was used as vehicle as it was used for dilution of drugs. Tests were performed in the order described below after 10 min of the last injection, with a 24 h interval between each test.
Morris Water Maze (MWM): MWM [32] was used to assess the effects of OS, WIN, and OS + WIN in memory one day after the EPM test. MWM is a gold standard test to assess learning and memory consisting of 10 days of training and two probe trials in a pool with water at a temperature of 26 °C, with one submersed platform invisible to mice. Each mouse could try to find the platform for 100 s, four times per day, with an inter-trial interval of 15–30 min. In each trial, animals were released randomly from each of the four starting positions. This protocol of training was repeated for ten days (training sessions). The platform was removed on the 6th and 11th days, and the animals were left free to swim for 100 s (probe trials). Right after the first probe trial (day 6), animals were trained again with the platform at the same place. During the training sessions, the mean latency to find the platform for the session was calculated for each animal as the average of the four trials of the day. During the probe trials, the pool was divided into four equal virtual quadrants, and the time spent in the target quadrant (TQ) (i.e., the quadrant where the platform was located during the training sessions) was assessed as a measure of memory retention. For this test, we used Veh (n = 9), OS (n = 8), WIN (n = 8), OS + WIN (n = 14).

For data set [9], the target named is MOR (Homo sapiens, UniProt P35372).
Data set [10] relates to C57BL/6J mice. Nature of the data set: Home cage activity test. It counts as in vivo, mouse. The following applies: i.p., OS 2 mg/kg. As for the experimental part:
as §5, §6
Cage activity assessment: At P60, animals were moved to the cage activity room for one hour before injections for habituation.. The cage activity assessment consists of placing the mice in a transparent box which is placed between three infrared sensors (two on the cage’s side and one in its front) that count how many times the mice cross the infrared beams. The times of beams crossed in each 30 min were counted over a period of 24 h and used as a locomotor activity measurement. In addition, we also compared the total number of beams crossed during the day and night period. For this test, we used Veh (n = 10), OS (n = 9), WIN (n = 11), OS + WIN (n = 8).

In data set [11] the target is H4R (Homo sapiens, UniProt Q9H3N8).
Data set [12] relates to non-injected oocytes. Nature of the data set: Two-electrode voltage-clamp on non-injected oocytes. In kind it is cell-based, Xenopus laevis. The note with it: 100 μM OS, ND96.
From the text: Isolation of Xenopus laevis oocytes. All procedures for the use and handling of adult female Xenopus laevis frogs (CRB Xénopes, Rennes, France) were approved by the Animal Ethics Committee of the KU Leuven (Project No. P186/2019) following regulations of the European Union (EU) concerning the welfare of laboratory animals as declared in Directive 2010/63/EU. Oocytes were isolated as described previously. Stage V–VI Xenopus laevis oocytes were isolated by partial ovariectomy. The animals were anesthetized by a 15 min submersion in 0.1% tricaine methane sulfonate (Sigma-Aldrich Chemical, St. Louis, MO, USA) solution (pH 7.0). The oocytes were enzymatically defolliculated by collagenase (3 mg/mL) (Sigma-Aldrich Chemical, St. Louis, MO, USA) digestion at 16 °C on a rocker platform in a Ca^2+-free ND96 solution. Isolated stage V–VI oocytes were then maintained in ND96 solution containing Theophylline and Gentamicin at 16 °C.
as §1

The structures appear in SMILES notation.

NaV1.5, sequence (Q14524 whole entry): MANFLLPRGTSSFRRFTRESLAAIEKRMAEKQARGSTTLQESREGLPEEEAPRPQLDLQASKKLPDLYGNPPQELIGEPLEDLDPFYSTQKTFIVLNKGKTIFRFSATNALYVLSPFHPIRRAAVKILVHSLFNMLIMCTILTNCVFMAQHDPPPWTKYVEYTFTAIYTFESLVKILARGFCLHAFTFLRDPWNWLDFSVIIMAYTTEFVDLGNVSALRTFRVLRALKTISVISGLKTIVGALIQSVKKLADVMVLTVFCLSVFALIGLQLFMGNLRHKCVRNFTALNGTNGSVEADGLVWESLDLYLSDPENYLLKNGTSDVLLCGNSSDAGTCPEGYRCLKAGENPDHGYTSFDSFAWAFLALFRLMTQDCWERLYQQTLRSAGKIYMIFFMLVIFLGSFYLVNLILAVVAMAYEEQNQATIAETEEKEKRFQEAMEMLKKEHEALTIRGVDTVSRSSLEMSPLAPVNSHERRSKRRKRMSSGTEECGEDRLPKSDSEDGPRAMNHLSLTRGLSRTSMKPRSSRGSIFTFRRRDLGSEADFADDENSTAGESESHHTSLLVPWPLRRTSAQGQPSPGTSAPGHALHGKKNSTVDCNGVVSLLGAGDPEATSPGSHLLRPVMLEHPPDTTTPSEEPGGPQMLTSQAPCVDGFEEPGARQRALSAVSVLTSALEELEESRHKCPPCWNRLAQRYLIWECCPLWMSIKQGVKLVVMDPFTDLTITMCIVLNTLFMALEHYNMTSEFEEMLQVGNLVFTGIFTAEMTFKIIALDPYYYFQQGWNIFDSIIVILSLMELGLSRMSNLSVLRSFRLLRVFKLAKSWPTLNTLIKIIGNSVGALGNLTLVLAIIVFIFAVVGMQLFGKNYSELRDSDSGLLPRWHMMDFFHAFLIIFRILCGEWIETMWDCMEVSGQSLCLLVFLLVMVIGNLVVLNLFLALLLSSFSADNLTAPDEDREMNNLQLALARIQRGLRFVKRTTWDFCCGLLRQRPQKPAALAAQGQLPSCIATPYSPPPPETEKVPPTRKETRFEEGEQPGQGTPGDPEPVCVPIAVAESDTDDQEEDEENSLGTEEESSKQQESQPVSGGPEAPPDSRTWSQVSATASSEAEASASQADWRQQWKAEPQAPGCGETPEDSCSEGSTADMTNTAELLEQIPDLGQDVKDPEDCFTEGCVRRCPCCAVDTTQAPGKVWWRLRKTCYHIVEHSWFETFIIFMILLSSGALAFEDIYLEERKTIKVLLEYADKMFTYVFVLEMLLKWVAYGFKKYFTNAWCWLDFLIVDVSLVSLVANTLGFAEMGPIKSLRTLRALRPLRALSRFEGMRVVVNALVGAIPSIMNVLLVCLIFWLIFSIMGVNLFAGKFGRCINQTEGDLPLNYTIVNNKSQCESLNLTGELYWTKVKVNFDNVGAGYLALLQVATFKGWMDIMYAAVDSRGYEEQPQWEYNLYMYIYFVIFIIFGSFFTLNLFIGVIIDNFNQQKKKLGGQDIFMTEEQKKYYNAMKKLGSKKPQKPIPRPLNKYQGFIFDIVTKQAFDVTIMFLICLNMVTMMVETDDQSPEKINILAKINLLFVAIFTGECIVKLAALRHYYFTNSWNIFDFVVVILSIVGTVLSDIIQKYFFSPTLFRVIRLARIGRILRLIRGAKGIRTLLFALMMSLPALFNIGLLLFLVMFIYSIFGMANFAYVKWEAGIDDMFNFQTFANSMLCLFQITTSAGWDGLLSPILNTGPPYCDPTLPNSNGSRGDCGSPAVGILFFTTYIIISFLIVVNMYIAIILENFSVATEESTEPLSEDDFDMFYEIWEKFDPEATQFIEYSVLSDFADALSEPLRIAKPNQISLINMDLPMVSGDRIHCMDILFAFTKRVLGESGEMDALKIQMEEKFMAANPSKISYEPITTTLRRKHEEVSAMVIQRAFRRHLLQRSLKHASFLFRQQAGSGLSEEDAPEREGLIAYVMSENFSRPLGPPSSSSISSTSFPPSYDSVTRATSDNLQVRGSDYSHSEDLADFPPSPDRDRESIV
KV1.5, sequence (P22460 whole entry): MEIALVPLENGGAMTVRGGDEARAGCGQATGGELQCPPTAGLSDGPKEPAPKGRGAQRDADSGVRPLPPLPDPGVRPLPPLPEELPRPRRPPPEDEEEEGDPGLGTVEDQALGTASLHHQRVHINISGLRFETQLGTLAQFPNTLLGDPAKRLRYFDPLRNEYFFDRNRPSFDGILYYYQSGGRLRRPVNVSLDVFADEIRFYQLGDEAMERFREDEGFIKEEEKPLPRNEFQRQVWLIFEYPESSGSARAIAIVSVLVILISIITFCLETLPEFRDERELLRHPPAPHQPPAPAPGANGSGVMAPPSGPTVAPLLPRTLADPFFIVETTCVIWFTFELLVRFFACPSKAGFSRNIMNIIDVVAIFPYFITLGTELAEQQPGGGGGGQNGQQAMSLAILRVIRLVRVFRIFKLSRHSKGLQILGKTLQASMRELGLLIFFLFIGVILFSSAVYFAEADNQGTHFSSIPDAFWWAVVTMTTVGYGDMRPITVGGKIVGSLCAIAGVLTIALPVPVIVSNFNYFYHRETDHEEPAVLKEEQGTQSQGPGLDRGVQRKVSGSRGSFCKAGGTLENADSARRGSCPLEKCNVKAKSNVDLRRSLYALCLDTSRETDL
MOR, sequence (P35372 whole entry): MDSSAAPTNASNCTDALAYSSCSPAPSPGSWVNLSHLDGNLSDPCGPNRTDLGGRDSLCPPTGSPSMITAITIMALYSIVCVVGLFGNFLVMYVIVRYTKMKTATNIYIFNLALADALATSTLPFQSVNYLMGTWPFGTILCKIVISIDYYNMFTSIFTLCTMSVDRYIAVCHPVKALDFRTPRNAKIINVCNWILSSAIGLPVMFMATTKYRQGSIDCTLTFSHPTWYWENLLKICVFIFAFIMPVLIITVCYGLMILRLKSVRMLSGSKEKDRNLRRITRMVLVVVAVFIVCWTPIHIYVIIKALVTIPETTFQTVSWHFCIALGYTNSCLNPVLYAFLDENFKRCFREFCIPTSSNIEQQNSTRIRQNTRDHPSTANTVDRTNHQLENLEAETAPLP
α7-nAChR, sequence (P36544 23-502): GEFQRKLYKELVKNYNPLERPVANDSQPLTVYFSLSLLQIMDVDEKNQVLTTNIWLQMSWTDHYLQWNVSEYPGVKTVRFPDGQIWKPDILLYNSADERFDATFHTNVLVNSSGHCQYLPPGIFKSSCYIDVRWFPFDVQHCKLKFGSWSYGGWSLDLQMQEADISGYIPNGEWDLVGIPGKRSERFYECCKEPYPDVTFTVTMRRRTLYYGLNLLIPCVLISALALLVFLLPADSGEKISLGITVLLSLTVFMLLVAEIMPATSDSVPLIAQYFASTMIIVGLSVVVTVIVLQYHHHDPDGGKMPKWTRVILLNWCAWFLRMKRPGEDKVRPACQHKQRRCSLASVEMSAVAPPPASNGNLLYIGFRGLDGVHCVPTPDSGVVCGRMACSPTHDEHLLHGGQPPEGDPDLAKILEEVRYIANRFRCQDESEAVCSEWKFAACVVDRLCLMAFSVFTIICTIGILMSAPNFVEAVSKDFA
hERG, sequence (Q12809 whole entry): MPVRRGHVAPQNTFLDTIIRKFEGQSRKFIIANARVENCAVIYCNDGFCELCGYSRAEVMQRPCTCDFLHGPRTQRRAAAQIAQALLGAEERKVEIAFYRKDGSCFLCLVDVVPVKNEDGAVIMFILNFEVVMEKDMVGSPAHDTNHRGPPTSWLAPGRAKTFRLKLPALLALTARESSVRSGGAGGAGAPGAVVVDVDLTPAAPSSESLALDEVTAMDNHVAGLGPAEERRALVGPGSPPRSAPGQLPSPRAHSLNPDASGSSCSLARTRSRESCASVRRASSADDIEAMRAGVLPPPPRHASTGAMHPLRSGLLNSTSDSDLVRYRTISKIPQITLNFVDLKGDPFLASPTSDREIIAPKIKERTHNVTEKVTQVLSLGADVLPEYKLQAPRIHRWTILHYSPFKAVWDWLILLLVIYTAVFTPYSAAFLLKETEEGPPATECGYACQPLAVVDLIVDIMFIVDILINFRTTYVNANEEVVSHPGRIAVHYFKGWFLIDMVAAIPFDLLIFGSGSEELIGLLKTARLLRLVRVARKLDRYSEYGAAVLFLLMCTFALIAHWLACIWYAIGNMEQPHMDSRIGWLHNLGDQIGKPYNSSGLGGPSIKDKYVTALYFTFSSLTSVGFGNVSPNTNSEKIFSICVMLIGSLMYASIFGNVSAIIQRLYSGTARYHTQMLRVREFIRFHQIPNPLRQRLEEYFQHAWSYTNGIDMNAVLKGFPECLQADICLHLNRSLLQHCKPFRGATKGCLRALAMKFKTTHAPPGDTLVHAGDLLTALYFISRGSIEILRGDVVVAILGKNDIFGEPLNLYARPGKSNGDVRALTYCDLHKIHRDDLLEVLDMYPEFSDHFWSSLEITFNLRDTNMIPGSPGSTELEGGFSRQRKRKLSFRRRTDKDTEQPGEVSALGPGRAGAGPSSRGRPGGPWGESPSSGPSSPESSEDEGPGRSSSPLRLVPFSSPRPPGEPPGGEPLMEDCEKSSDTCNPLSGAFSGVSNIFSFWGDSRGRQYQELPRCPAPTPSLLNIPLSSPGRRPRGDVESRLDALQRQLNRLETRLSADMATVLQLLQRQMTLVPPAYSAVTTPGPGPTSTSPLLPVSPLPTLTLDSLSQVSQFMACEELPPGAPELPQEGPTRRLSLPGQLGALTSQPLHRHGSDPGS
H4R, sequence (Q9H3N8 whole entry): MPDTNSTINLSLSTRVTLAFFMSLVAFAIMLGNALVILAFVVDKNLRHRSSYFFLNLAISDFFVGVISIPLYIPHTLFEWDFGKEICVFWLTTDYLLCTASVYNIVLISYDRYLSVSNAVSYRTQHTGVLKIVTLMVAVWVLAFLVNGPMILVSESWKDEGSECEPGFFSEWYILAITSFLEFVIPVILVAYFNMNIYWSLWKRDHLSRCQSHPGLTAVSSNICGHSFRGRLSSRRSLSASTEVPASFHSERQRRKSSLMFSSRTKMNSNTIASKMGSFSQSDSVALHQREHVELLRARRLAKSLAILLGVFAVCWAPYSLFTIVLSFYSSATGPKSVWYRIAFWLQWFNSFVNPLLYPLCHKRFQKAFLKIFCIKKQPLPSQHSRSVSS

Consider `CCCCCCCC/C=C\CCCCCCCC(=O)NCCc1c[nH]c2ccc(O)cc12` [OS, oleoyl serotonin], for which the “Activity in selectivity screening” value in data set [1], in data set [2], in data set [3], in data set [4], in data set [5] and in data set [6] was “did not show significant activity” in each case. Moreover, the “Activity in selectivity screening” value in [7], in [9] and in data set [11] was “did not show significant activity” throughout. In data set [8] (100 s trial), the “Time spent in the target quadrant (TQ), first probe trial” value is “more than 25 s”. In data set [8] (day 6), the “Performance in first probe trial vs control (time in target quadrant)” value is “performed worse than the control”. Besides, the “Overall locomotion during the night in home cage vs control” value in data set [10] is reported as “moved more in the cage compared to the control group”. Further, the “Cage activity (beam crossings) 2 h after the beginning of night phase” value in [10] (WIN 0.5 mg/kg, 21 h) was “notably increased cage activity”. Besides, the “Activity on non-injected oocytes” value in [12] is listed as “did not show activity”.

For the origin of these results see article PMC10887214 (Biomedicines, 2024).
